In general, IC50 refers to the point on the concentration scale where inhibition reaches its midpoint. By MIC is commonly meant the smallest concentration in the dilution series that meets the test's criterion for growth inhibition. A word on the MBC: it is the lowest tested concentration that kills the bacteria rather than only halting them. High values mean weaker bactericidal potency, low ones greater bactericidal potency.

For one assay, the system named is CaCo-2 cells. Kind of assay: MTT cytotoxicity assay. In kind it is cell-based, human. To be noted: 24 h of incubation relative to untreated controls. The protocol:
To evaluate the biological activity of the PBn series, compounds were screened for toxicity against the colon-rectal cancer cell line CaCo-2 (ATCC HTB-37). These human cancer cells were treated with solutions of the compounds at decreasing concentrations, starting from 100 μM up to 0.01 μM. The reference compound used for these assays was 5-Fluorouracil (5-Fu), a pyrimidine analogue belonging to the family of antimetabolite. […] Briefly, human colorectal adenocarcinoma cells (CaCo-2 HTB-37^TM Colorectal Adenocarcinoma Human, American Type Culture Collection, Manassas, VA, USA) were grown in Dulbecco’s MEM (DMEM) with 10% heat-inactivated fetal bovine serum, 2 mM L-Alanyl-L-Glutamine, penicillin-streptomycin (50 units-50 μg for mL) and incubated at 37 °C in a humidified atmosphere of 5% CO2, 95% air. CaCo-2 cells were plated in 96 well pates and incubated at 37 °C. The PBn series compounds and 5-FU were prepared as a 1 mM solution in 10 mL with 0.01% DMSO. Then, 24 h after plating, cells were treated with 20 μL of each solution. Untreated cells were used as controls. […] The results were read on a multiwell scanning spectrophotometer (AF2200 plate reader, Eppendorf, Milan, Italy), using a wavelength of 569 nm.
For orientation: Tetrazolium assays rely on reduction of a dye to a coloured formazan, in cell work by metabolically active cells.

The subject of the next assay is S.aureus ATCC12598-MSSA. In words: MIC and MBC microtiter plate assay, also with different inocula. In kind it is cell-based, Staphylococcus aureus.
Another assay has as its system P. aeruginosa ATCC27853. In words: MIC microtiter plate assay. The class given is cell-based, Pseudomonas aeruginosa.
Assay [1] concerns K. pneumoniae ATCC BAA-2814. Kind of assay: MIC microtiter plate assay. The class given is cell-based, Klebsiella pneumoniae. To be noted: K. pneumoniae ATCC BAA-2814 (MDR strain).
For a further assay, the system named is A. baumannii ATCC17978. Kind of assay: MIC and MBC microtiter plate assay, also with different inocula. In kind it is cell-based, Acinetobacter baumannii. To be noted: A. baumannii ATCC17978.
In the next assay the test system is E. coli ATCC25922. Described as above. In kind it is cell-based, Escherichia coli.
In assay [2] the test system is E. faecalis ATCC51299-VRE. The assay is described as above. In kind it is cell-based.
In a further assay the test system is S.aureus USA300-CAMRSA. Kind of assay: MIC and MBC microtiter plate assay. In kind it is cell-based, Staphylococcus aureus.
In the next assay the test system is K. pneumoniae ATCC700603. In words: MIC microtiter plate assay. The class given is cell-based, Klebsiella pneumoniae.
The subject of a further assay is S.aureus Mu50-VISA. Kind of assay: MIC and MBC microtiter plate assay. In kind it is cell-based, Staphylococcus aureus.
The subject of assay [3] is E. faecalis ATCC29212-VSE. Kind of assay: MIC and MBC microtiter plate assay. The class given is cell-based.
A further assay has as its system S.aureus ATCC29213-MSSA. In words: MIC and MBC microtiter plate assay. In kind it is cell-based, Staphylococcus aureus.
In assay [4] the test system is Gram-positive control strains. In words: MIC and MBC, summary over Gram-positive control strains. To be noted: over the Gram-positive control strains (S. aureus and Enterococcus spp.). The class given is cell-based, S. aureus and Enterococcus spp.
[5] abbreviates: S.aureus ATCC12598-MSSA, value in brackets.
Where [6] appears, read: E. faecalis ATCC51299-VRE, value in brackets.

Where “and” joins values, the source holds several entries; their conditions need not be identical. Equal values may be shown once. Read-outs that look alike come from different tables or passages of the source. Where only a bound is given, the exact number is not on record here.

Turning to `O=c1[nH]cc(F)c(=O)[nH]1` [5-FU, 5-Fluorouracil, reference compound], the IC50 with CaCo-2 cells was determined as 27400 nM; in the assay on CaCo-2 cells (Homo sapiens, Caco-2, 24 h), 27400 nM.

`CN(C)c1ccc(/C=C/c2ccc3ccccc3[n+]2C)cc1.[I-]` [PB1]: the MIC in the assay with S.aureus ATCC12598-MSSA (S.aureus ATCC12598-MSSA) is 2 mg/L; in the assay with S.aureus ATCC12598-MSSA (setting [5]), 4.80 µM; in the assay with P. aeruginosa ATCC27853, over 128 µg/mL; against P. aeruginosa ATCC27853 (value in brackets), over 307.47 µM; in [1], over 128 µg/mL; in [1] (value in brackets) it was over 307.47 µM. In addition, the MIC is 128 µg/mL with A. baumannii ATCC17978; 307.47 µM against A. baumannii ATCC17978 (value in brackets); 16 µg/mL against E. coli ATCC25922; 38.43 µM in the assay with E. coli ATCC25922 (value in brackets); 32 mg/L in assay [2] (E. faecalis ATCC51299-VRE); 76.87 µM in [2] (setting [6]). Also, the MIC in the assay with S.aureus USA300-CAMRSA is 2 µg/mL; in the assay with S.aureus USA300-CAMRSA (value in brackets) it was 4.80 µM; with K. pneumoniae ATCC700603, over 128 µg/mL; in the assay on K. pneumoniae ATCC700603 (value in brackets) it was over 307.47 µM; against S.aureus Mu50-VISA, 32 µg/mL; with S.aureus Mu50-VISA (value in brackets) it was 76.87 µM. Moreover, the MIC in assay [3] turned out to be 32 µg/mL; in [3] (value in brackets), 76.87 µM; with S.aureus ATCC29213-MSSA, 4 µg/mL; in the assay on S.aureus ATCC29213-MSSA (value in brackets), 9.61 µM. The same compound yielded an IC50 in the assay on CaCo-2 cells of 1200 nM.

With `C[n+]1c(/C=C/c2ccc(-c3ccccc3)s2)ccc2ccccc21.[I-]` [PB3], the MIC in the assay with S.aureus ATCC12598-MSSA (S.aureus ATCC12598-MSSA) is 8 mg/L; against S.aureus ATCC12598-MSSA (setting [5]), 17.57 µM; with P. aeruginosa ATCC27853 it was over 128 µg/mL; in the assay with P. aeruginosa ATCC27853 (value in brackets), 281.10 µM; against A. baumannii ATCC17978 it was 64 µg/mL; in the assay on A. baumannii ATCC17978 (value in brackets), 140.55 µM. Further, the MIC was determined as 16 µg/mL against E. coli ATCC25922; 35.14 µM against E. coli ATCC25922 (value in brackets); 32 mg/L in [2] (E. faecalis ATCC51299-VRE); 70.28 µM in [2] (setting [6]); 2 µg/mL against S.aureus USA300-CAMRSA; 4.39 µM against S.aureus USA300-CAMRSA (value in brackets). The MIC with K. pneumoniae ATCC700603 was over 128 µg/mL; in the assay with K. pneumoniae ATCC700603 (value in brackets) it was over 281.10 µM; against S.aureus Mu50-VISA, 32 µg/mL; with S.aureus Mu50-VISA (value in brackets) it was 70.28 µM; in assay [3] it was 32 µg/mL; in assay [3] (value in brackets), 70.28 µM. The MIC against S.aureus ATCC29213-MSSA came out at 4 µg/mL; against S.aureus ATCC29213-MSSA (value in brackets) it was 8.78 µM. Besides, inhibition in the assay on CaCo-2 cells was half-maximal at 871 nM (IC50).

For the compound `CC[n+]1ccc2c(c1)CCCC2=Cc1ccc(-c2ccc(Cl)cc2)o1.[I-]` [PB7], the MIC against S.aureus ATCC12598-MSSA (S. aureus ATCC12598, inoculum 1.00101 (1 × 10^1 CFU/mL)) is 2 mg/L and 4.31 μM; against S.aureus ATCC12598-MSSA (S. aureus ATCC12598, inoculum 1.00102 (1 × 10^2 CFU/mL)) it was 4 mg/L and 8.63 μM; against S.aureus ATCC12598-MSSA (S. aureus ATCC12598, inoculum 1.00103 (1 × 10^3 CFU/mL)) it was 8.63 μM and 4 mg/L; in the assay with S.aureus ATCC12598-MSSA (S. aureus ATCC12598, inoculum 1.00104 (1 × 10^4 CFU/mL)), 4 mg/L and 8.63 μM; against S.aureus ATCC12598-MSSA (S. aureus ATCC12598, inoculum 1.00105 (1 × 10^5 CFU/mL, standard)), 8 mg/L and 17.25 μM; in the assay on S.aureus ATCC12598-MSSA (S. aureus ATCC12598, inoculum 1.00106 (1 × 10^6 CFU/mL)), 8 mg/L and 17.25 μM. In addition, the MIC was 32 mg/L and 69.00 μM in the assay with S.aureus ATCC12598-MSSA (S. aureus ATCC12598, inoculum 1.00107 (1 × 10^7 CFU/mL)); 8 mg/L in the assay with S.aureus ATCC12598-MSSA (S.aureus ATCC12598-MSSA); 17.25 µM against S.aureus ATCC12598-MSSA (setting [5]); over 128 µg/mL in the assay on P. aeruginosa ATCC27853; over 276.02 µM with P. aeruginosa ATCC27853 (value in brackets); 64 µg/mL in [1]. Further, the MIC in assay [1] (value in brackets) was 138.01 µM; in the assay on A. baumannii ATCC17978, 32 µg/mL; in the assay with A. baumannii ATCC17978 (value in brackets), 69.00 µM; against E. coli ATCC25922, 32 µg/mL; in the assay with E. coli ATCC25922 (value in brackets) it was 69.00 µM; in assay [2] (E. faecalis ATCC51299-VRE) it was 8 mg/L. Also, the MIC in [2] (setting [6]) was 17.25 µM; in assay [2] (E. faecalis ATCC51299, inoculum 1.00101 (1 × 10^1 CFU/mL)), 8 mg/L and 17.25 μM; in assay [2] (E. faecalis ATCC51299, inoculum 1.00102 (1 × 10^2 CFU/mL)), 8 mg/L and 17.25 μM; in [2] (E. faecalis ATCC51299, inoculum 1.00103 (1 × 10^3 CFU/mL)), 8 mg/L and 17.25 μM; in assay [2] (E. faecalis ATCC51299, inoculum 1.00104 (1 × 10^4 CFU/mL)), 8 mg/L and 17.25 μM; in assay [2] (E. faecalis ATCC51299, inoculum 1.00105 (1 × 10^5 CFU/mL, standard)), 8 mg/L and 17.25 μM. Moreover, the MIC in assay [2] (E. faecalis ATCC51299, inoculum 1.00106 (1 × 10^6 CFU/mL)) is 16 mg/L and 34.50 μM; in [2] (E. faecalis ATCC51299, inoculum 1.00107 (1 × 10^7 CFU/mL)) it was 32 mg/L and 69.00 μM; with S.aureus USA300-CAMRSA it was 2 µg/mL; against S.aureus USA300-CAMRSA (value in brackets), 4.31 µM; in the assay on K. pneumoniae ATCC700603, 128 µg/mL; in the assay on K. pneumoniae ATCC700603 (value in brackets) it was 276.02 µM. The MIC against S.aureus Mu50-VISA is 16 µg/mL; against S.aureus Mu50-VISA (value in brackets), 34.50 µM; in assay [3], 8 µg/mL; in assay [3] (value in brackets), 17.25 µM; in [4] it was at most 16 µg/mL; with S.aureus ATCC29213-MSSA it was 4 µg/mL. Besides, the MIC with S.aureus ATCC29213-MSSA (value in brackets) worked out at 8.63 µM. Moreover, the MBC against S.aureus ATCC12598-MSSA (S.aureus ATCC12598-MSSA) stood at 8 µg/mL; in the assay with S.aureus ATCC12598-MSSA (setting [5]), 17.25 µM; in assay [2] (E. faecalis ATCC51299-VRE), 128 µg/mL; in [2] (setting [6]), 276.02 µM; against S.aureus USA300-CAMRSA, 32 µg/mL; in the assay with S.aureus USA300-CAMRSA (value in brackets), 69.00 µM. The MBC in the assay with S.aureus Mu50-VISA came out at 16 µg/mL; with S.aureus Mu50-VISA (value in brackets) it was 34.50 µM; in [3] it was 128 µg/mL; in assay [3] (value in brackets), 276.02 µM; in the assay with S.aureus ATCC29213-MSSA it was 4 µg/mL; in the assay on S.aureus ATCC29213-MSSA (value in brackets), 8.63 µM. In the assay with CaCo-2 cells, this compound yielded an IC50 of 1360 nM.

(Values after publication PMC8466554, “Heteroaryl-Ethylenes as New Lead Compounds in the Fight against High Priority Bacterial Strains” (Antibiotics, 2021).)
